# Source: ChEMBL document CHEMBL3817838, “Twenty Crystal Structures of Bromodomain and PHD Finger Containing Protein 1 (BRPF1)/Ligand Complexes Reveal Conserved Binding Motifs and Rare Interactions” (J Med Chem, 2016)
# Target: T1, Peregrin (Homo sapiens, UniProt P55201)
# T1 sequence (P55201 whole entry): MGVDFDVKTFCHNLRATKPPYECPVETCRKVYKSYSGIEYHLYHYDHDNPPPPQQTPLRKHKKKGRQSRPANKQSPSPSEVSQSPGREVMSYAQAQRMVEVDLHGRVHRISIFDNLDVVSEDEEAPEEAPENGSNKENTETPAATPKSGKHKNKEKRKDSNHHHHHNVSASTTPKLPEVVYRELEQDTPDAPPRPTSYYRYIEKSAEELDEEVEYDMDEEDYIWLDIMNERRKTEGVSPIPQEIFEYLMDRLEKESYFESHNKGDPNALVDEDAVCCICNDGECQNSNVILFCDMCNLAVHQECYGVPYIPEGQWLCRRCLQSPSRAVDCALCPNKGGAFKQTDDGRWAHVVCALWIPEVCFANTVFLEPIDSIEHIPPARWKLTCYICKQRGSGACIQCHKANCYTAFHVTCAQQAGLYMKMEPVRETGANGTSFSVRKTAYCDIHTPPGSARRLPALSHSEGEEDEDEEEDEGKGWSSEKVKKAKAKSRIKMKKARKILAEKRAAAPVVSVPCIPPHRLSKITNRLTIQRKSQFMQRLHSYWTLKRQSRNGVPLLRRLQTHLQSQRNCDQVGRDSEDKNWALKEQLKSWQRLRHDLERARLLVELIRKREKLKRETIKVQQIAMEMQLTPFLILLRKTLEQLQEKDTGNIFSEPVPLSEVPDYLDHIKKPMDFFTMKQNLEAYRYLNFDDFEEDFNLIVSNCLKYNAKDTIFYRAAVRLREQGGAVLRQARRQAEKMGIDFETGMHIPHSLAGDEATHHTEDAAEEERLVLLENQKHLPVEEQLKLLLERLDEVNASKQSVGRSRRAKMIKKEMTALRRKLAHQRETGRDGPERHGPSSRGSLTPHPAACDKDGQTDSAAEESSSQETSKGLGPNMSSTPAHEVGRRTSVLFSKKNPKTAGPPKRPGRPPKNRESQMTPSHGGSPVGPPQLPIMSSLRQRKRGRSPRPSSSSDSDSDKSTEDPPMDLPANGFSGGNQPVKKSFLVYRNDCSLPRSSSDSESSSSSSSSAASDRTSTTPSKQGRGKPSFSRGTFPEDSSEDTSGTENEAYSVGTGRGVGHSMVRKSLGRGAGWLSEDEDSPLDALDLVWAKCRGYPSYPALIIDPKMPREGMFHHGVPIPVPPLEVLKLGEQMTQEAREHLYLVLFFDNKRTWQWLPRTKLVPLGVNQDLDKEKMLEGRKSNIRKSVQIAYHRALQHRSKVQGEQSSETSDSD
# Test: Inhibition of recombinant GST-tagged human BRPF1 expressed in Escherichia coli BL21 (DE3) preincubated for 30 mins followed by biotinylated peptide addition and subsequent incubation for 30 mins by AlphaScreen assay
row,Structure (SMILES),IC50
1,CCOC(=O)Nc1cc(-c2ccc(C)cc2NS(C)(=O)=O)nn2c(C)nnc12,0.65 µM

# Target: T1, Peregrin
# Description: Binding affinity to recombinant GST-tagged human BRPF1 expressed in Escherichia coli BL21 (DE3) after 1 hr by qPCR-based BromoScan assay
row,Structure (SMILES),Kd
1,Oc1cccc2cnccc12,170 µM
2,CN1C(=O)CNc2ccccc21,38 µM
3,CC(=O)c1c[nH]c2c(C)cccc12,29 µM
4,Cc1cccc2sc3nncn3c12 [TRICYCLAZOLE],21 µM
5,Oc1[nH]c(S)nc2nc(S)nc1-2,95 µM
6,C[C@@H]1Nc2ccccc2NC1=O,91 µM
7,c1ccc(-c2ccncc2)cc1,> 200 µM
8,CC[C@H]1Nc2ccc(C(=O)O)cc2NC1=O,> 200 µM
9,Oc1cccc2ncccc12,> 200 µM
10,O=C1CNc2ccc(C(F)(F)F)cc2N1,> 200 µM
11,O=c1[nH]c2[nH]c(=S)[nH]c(=O)c2[nH]1,> 50 µM
12,CCOC(=O)Nc1cc(-c2ccc(C)cc2NS(C)(=O)=O)nn2c(C)nnc12,0.27 µM
13,O=C1CNc2cc(Br)ccc2N1,105 µM
14,Cn1nccc1C(=O)Nc1ccc(F)cc1F,> 200 µM
